In US12257233B2, “Methods” (Ethismos Research, Inc., priority 2018, dated 2025):

Key:
[1] = tested on: mouse; conditions: second phase (15-30 minutes); cited from earlier work
[2] = target: T1, 5-HT2c receptor (Homo sapiens, UniProt P28335); assay: Functional activity at the 5-HT2c receptor; format: biochemical
T1 sequence (P28335 33-458): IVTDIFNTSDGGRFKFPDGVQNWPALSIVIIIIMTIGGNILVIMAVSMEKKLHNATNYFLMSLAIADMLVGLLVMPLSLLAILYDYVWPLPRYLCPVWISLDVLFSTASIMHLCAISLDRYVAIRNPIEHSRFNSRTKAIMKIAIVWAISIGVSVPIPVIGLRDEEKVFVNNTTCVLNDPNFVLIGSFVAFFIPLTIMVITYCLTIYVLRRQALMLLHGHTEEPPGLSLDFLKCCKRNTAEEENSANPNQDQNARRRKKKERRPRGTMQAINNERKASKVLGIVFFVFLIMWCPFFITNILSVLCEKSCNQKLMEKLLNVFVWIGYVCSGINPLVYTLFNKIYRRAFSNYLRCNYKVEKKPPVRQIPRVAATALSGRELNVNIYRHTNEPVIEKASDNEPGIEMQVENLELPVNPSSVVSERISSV
Text: It has been proposed that serotonin exerts control of dopamine release in the ventral tegmental area via the 5-HT2c receptor. […] Opioid analgesic effects are manifested via the periaqueductal gray whereas reduction in self-administration results from a reduction in dopamine neurotransmission via 5-HT2c partial agonism in the ventral tegmental area.

[3] = tested on: rats; assay: Hot plate test of analgesia; format: in vivo, rat
Text: The hot plate test assesses antinociception in rats and mice (see, e.g., Basile, A. et al., “Characterization of the Antinociceptive Actions of Bicifadine in Models of Acute, Persistent, and Chronic Pain,” The Journal of Pharmacology and Experimental Therapeutics, 2007, 321 (3), 1208-1225).

[4] = tested on: patients with major depressive disorder; conditions: cited from earlier work
[5] = tested on: female rats; conditions: doses of 5 and 10 mg/kg; cited from earlier work

Compound	effectiveness compared with morphine in formalin paw lick test [1]	activity at the 5-HT2c receptor [2]	antinociception in hot plate test, given alone ([3]; amitifadine alone)	effect on the opioid's antinociception in hot plate test, in combination ([3]; amitifadine in combination with an opioid)	antidepressant activity [4]	food motivated responding [5]
Cl.Clc1ccc([C@]23CNC[C@H]2C3)cc1Cl [(1R,5S)-1-(3,4-dichlorophenyl)-3-azabicyclo[3.1.0]hexane hydrochloride]	as effective as morphine	–	–	–	–	–
Clc1ccc([C@]23CNC[C@H]2C3)cc1Cl [amitifadine, (1R,5S)-1-(3,4-dichlorophenyl)-3-azabicyclo[3.1.0]hexane]	–	partial agonist	antinociceptive	does not attenuate the opioid's antinociception, instead extending the opioid's antinociception	significant antidepressant activity	does not significantly affect
